Data reported in PubChem BioAssay (NCI).
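Abbreviation: GI50, concentration required for 50% inhibition of growth. At the TGI there is no net growth.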

Columns and labels:
Experiment in all cases: inhibition of tumour cell growth, NCI panel, 384-well format
MDA-MB-468 breast = test system: MDA-MB-468 breast
HCT-116 colon = test system: HCT-116 colon
HOP-92 NSCLC = test system: HOP-92 NSCLC
IGROV1 ovarian = test system: IGROV1 ovarian
SW-620 colon = test system: SW-620 colon
M14 melanoma = test system: M14 melanoma
NCI-H522 lung = test system: NCI-H522 lung
SK-MEL-2 melanoma = test system: SK-MEL-2 melanoma
OVCAR-4 ovarian = test system: OVCAR-4 ovarian
HCT-15 colon = test system: HCT-15 colon
A549 NSCLC = test system: A549 NSCLC
NCI-H460 NSCLC = test system: NCI-H460 NSCLC
KM12 colon = test system: KM12 colon

COc1cc(C)[nH]c(=O)c1CNC(=O)c1c(C)n([C@H](C)C2CCN(CC(F)(F)F)CC2)c2ccccc12
GI50 (MDA-MB-468 breast): 21.4 µM | TGI (MDA-MB-468 breast): 51.3 µM | GI50 (HCT-116 colon): 66.8 µM | TGI (HCT-116 colon): > 100 µM | GI50 (HOP-92 NSCLC): 45.7 µM | TGI (HOP-92 NSCLC): > 100 µM | GI50 (IGROV1 ovarian): 44.1 µM | TGI (IGROV1 ovarian): > 100 µM | GI50 (SW-620 colon): 52 µM | TGI (SW-620 colon): > 91.9 µM | GI50 (M14 melanoma): > 72.8 µM | TGI (M14 melanoma): > 100 µM | GI50 (NCI-H522 lung): 65.2 µM | TGI (NCI-H522 lung): > 100 µM | GI50 (SK-MEL-2 melanoma): 38.6 µM | TGI (SK-MEL-2 melanoma): > 100 µM | GI50 (OVCAR-4 ovarian): 45.5 µM | TGI (OVCAR-4 ovarian): > 100 µM | GI50 (HCT-15 colon): 67 µM | TGI (HCT-15 colon): > 100 µM | GI50 (A549 NSCLC): 46.8 µM | TGI (A549 NSCLC): > 100 µM | GI50 (NCI-H460 NSCLC): 54.7 µM | TGI (NCI-H460 NSCLC): > 100 µM | GI50 (KM12 colon): 53.8 µM | TGI (KM12 colon): > 100 µM
